Laboratory results: PubChem BioAssay AID1919001 (Molecular Pharmacology Branch, DTP, NCI, 2023)
One block for each compound: values may come before it.

Tested on: 699152-130-R-J1-PDC complex spheroid growth
Assay: Anticancer human tumor 699152-130-R-J1-PDC patient-derived pancreatic carcinoma cell line growth inhibition [AhR]
Conditions: for IC50: curve of first compound; for viability, T/C: stronger effect = lower value
Summary of the method: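 Spheroids combined tumor cells with HUVEC endothelial cells and human MSCs as stroma. AhR antagonists were paired with standard or investigational drugs, each dosed in half-log steps down from near clinical Cmax, or from 10 microM where Cmax was unknown.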

[1] = second compound 0.1 µM, first compound 0.0316 µM
[2] = second compound 0.1 µM, first compound 0.1 µM
[3] = second compound 0.1 µM, first compound 0.316 µM
[4] = second compound 0.1 µM, first compound 1 µM
[5] = second compound 0.1 µM, first compound 3.16 µM
[6] = second compound 0.1 µM, first compound 10 µM
[7] = second compound 0.316 µM, first compound 0.0316 µM
[8] = second compound 0.316 µM, first compound 0.1 µM
[9] = second compound 0.316 µM, first compound 0.316 µM
[10] = second compound 0.316 µM, first compound 1 µM
[11] = second compound 0.316 µM, first compound 3.16 µM
[12] = second compound 0.316 µM, first compound 10 µM
[13] = second compound 1 µM, first compound 0.0316 µM
[14] = second compound 1 µM, first compound 0.1 µM
[15] = second compound 1 µM, first compound 0.316 µM
[16] = second compound 1 µM, first compound 1 µM
[17] = second compound 1 µM, first compound 3.16 µM
[18] = second compound 1 µM, first compound 10 µM
[19] = second compound 3.16 µM, first compound 0.0316 µM
[20] = second compound 3.16 µM, first compound 0.1 µM
[21] = second compound 3.16 µM, first compound 0.316 µM
[22] = second compound 3.16 µM, first compound 1 µM
[23] = second compound 3.16 µM, first compound 3.16 µM
[24] = second compound 3.16 µM, first compound 10 µM
[25] = second compound 10 µM, first compound 0.0316 µM
[26] = second compound 10 µM, first compound 0.1 µM
[27] = second compound 10 µM, first compound 0.316 µM
[28] = second compound 10 µM, first compound 1 µM
[29] = second compound 10 µM, first compound 3.16 µM
[30] = second compound 10 µM, first compound 10 µM
[31] = second compound 0.1 µM, first compound 0.000316 µM
[32] = second compound 0.1 µM, first compound 0.001 µM
[33] = second compound 0.1 µM, first compound 0.00316 µM
[34] = second compound 0.1 µM, first compound 0.01 µM
[35] = second compound 0.316 µM, first compound 0.000316 µM
[36] = second compound 0.316 µM, first compound 0.001 µM
[37] = second compound 0.316 µM, first compound 0.00316 µM
[38] = second compound 0.316 µM, first compound 0.01 µM
[39] = second compound 1 µM, first compound 0.000316 µM
[40] = second compound 1 µM, first compound 0.001 µM
[41] = second compound 1 µM, first compound 0.00316 µM
[42] = second compound 1 µM, first compound 0.01 µM
[43] = second compound 3.16 µM, first compound 0.000316 µM
[44] = second compound 3.16 µM, first compound 0.001 µM
[45] = second compound 3.16 µM, first compound 0.00316 µM
[46] = second compound 3.16 µM, first compound 0.01 µM
[47] = second compound 10 µM, first compound 0.000316 µM
[48] = second compound 10 µM, first compound 0.001 µM
[49] = second compound 10 µM, first compound 0.00316 µM
[50] = second compound 10 µM, first compound 0.01 µM
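Also: compound exposure lasted 7 days after spheroids had grown for 3 days.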

Structure (SMILES): CC1COCCN1c1cc(C2(S(C)(=N)=O)CC2)nc(-c2ccnc3[nH]ccc23)n1 (stereo not given) + Cc1ccccc1N=Nc1ccc(NC(=O)c2ccnn2C)c(C)c1
IC50 (second compound 0.1 µM): > 10000 nM
IC50 (second compound 0.316 µM): > 10000 nM
IC50 (second compound 1 µM): > 10000 nM
IC50 (second compound 3.16 µM): > 10000 nM
IC50 (second compound 10 µM): > 10000 nM
viability, T/C [1]: 109%
viability, T/C [2]: 109%
viability, T/C [3]: 86.1%
viability, T/C [4]: 88.9%
viability, T/C [5]: 88.4%
viability, T/C [6]: 73.7%
viability, T/C [7]: 92%
viability, T/C [8]: 98%
viability, T/C [9]: 98.4%
viability, T/C [10]: 101%
viability, T/C [11]: 84.9%
viability, T/C [12]: 65.8%
viability, T/C [13]: 90.5%
viability, T/C [14]: 101%
viability, T/C [15]: 99.5%
viability, T/C [16]: 95.9%
viability, T/C [17]: 84.8%
viability, T/C [18]: 65.3%
viability, T/C [19]: 105%
viability, T/C [20]: 97%
viability, T/C [21]: 97.9%
viability, T/C [22]: 99%
viability, T/C [23]: 79.2%
viability, T/C [24]: 69.8%
viability, T/C [25]: 111%
viability, T/C [26]: 125%
viability, T/C [27]: 112%
viability, T/C [28]: 104%
viability, T/C [29]: 94.8%
viability, T/C [30]: 80.6%

Structure (SMILES): Cn1ncnc1C1c2n[nH]c(=O)c3cc(F)cc(c23)NC1c1ccc(F)cc1 (stereo not given) + Cc1ccccc1N=Nc1ccc(NC(=O)c2ccnn2C)c(C)c1
IC50 (second compound 0.1 µM): > 100 nM
IC50 (second compound 0.316 µM): > 100 nM
IC50 (second compound 1 µM): > 100 nM
IC50 (second compound 3.16 µM): > 100 nM
IC50 (second compound 10 µM): > 100 nM
viability, T/C [31]: 83.7%
viability, T/C [32]: 101%
viability, T/C [33]: 101%
viability, T/C [34]: 87%
viability, T/C [1]: 99.2%
viability, T/C [2]: 100%
viability, T/C [35]: 102%
viability, T/C [36]: 96.5%
viability, T/C [37]: 97.8%
viability, T/C [38]: 88.8%
viability, T/C [7]: 92.4%
viability, T/C [8]: 80.1%
viability, T/C [39]: 107%
viability, T/C [40]: 87%
viability, T/C [41]: 94%
viability, T/C [42]: 98.4%
viability, T/C [13]: 95.5%
viability, T/C [14]: 83.2%
viability, T/C [43]: 97.5%
viability, T/C [44]: 117%
viability, T/C [45]: 112%
viability, T/C [46]: 100%
viability, T/C [19]: 90.5%
viability, T/C [20]: 99%
viability, T/C [47]: 113%
viability, T/C [48]: 112%
viability, T/C [49]: 118%
viability, T/C [50]: 122%
viability, T/C [25]: 108%
viability, T/C [26]: 105%

Structure (SMILES): CC1COCCN1c1cc(C2(S(C)(=N)=O)CC2)nc(-c2ccnc3[nH]ccc23)n1 (stereo not given) + Cc1cncc(-c2nc(NCCc3c[nH]c4ccccc34)c3ncn(C(C)C)c3n2)c1
IC50 (second compound 0.1 µM): > 10000 nM
IC50 (second compound 0.316 µM): > 10000 nM
IC50 (second compound 1 µM): > 10000 nM
IC50 (second compound 3.16 µM): > 10000 nM
IC50 (second compound 10 µM): < 31.6 nM
viability, T/C [1]: 98.9%
viability, T/C [2]: 103%
viability, T/C [3]: 113%
viability, T/C [4]: 95.9%
viability, T/C [5]: 85.3%
viability, T/C [6]: 74.8%
viability, T/C [7]: 96.5%
viability, T/C [8]: 106%
viability, T/C [9]: 114%
viability, T/C [10]: 119%
viability, T/C [11]: 95.1%
viability, T/C [12]: 77.8%
viability, T/C [13]: 117%
viability, T/C [14]: 122%
viability, T/C [15]: 126%
viability, T/C [16]: 107%
viability, T/C [17]: 123%
viability, T/C [18]: 81.3%
viability, T/C [19]: 90.6%
viability, T/C [20]: 113%
viability, T/C [21]: 90.9%
viability, T/C [22]: 101%
viability, T/C [23]: 92.3%
viability, T/C [24]: 69.9%
viability, T/C [25]: 25.2%
viability, T/C [26]: 27.3%
viability, T/C [27]: 29.9%
viability, T/C [28]: 24.7%
viability, T/C [29]: 25.9%
viability, T/C [30]: 20.2%

More lines, main results first:

IC50 (second compound 0.1 µM): > 100 nM
IC50 (second compound 0.316 µM): 75 nM
IC50 (second compound 1 µM): > 100 nM
IC50 (second compound 3.16 µM): > 100 nM
IC50 (second compound 10 µM): > 100 nM
Structure (SMILES): CC[C@@]1(O)C(=O)OCc2c1cc1n(c2=O)Cc2cc3c(CN(C)C)c(O)ccc3nc2-1 + Cc1ccccc1N=Nc1ccc(NC(=O)c2ccnn2C)c(C)c1
viability, T/C [31]: 95.9%
viability, T/C [32]: 99%
viability, T/C [33]: 101%
viability, T/C [34]: 82.7%
viability, T/C [1]: 68.8%
viability, T/C [2]: 55.1%
viability, T/C [35]: 97.9%
viability, T/C [36]: 94%
viability, T/C [37]: 99.6%
viability, T/C [38]: 80.1%
viability, T/C [7]: 63.5%
viability, T/C [8]: 45.5%
viability, T/C [39]: 94.2%
viability, T/C [40]: 98.1%
viability, T/C [41]: 94.2%
viability, T/C [42]: 77.9%
viability, T/C [13]: 60.5%
viability, T/C [14]: 50.6%
viability, T/C [43]: 96.2%
viability, T/C [44]: 105%
viability, T/C [45]: 92.9%
viability, T/C [46]: 86.5%
viability, T/C [19]: 60.9%
viability, T/C [20]: 54.3%
viability, T/C [47]: 107%
viability, T/C [48]: 117%
viability, T/C [49]: 86.6%
viability, T/C [50]: 82.7%
viability, T/C [25]: 70%
viability, T/C [26]: 50.8%

IC50 (second compound 0.1 µM): 15.4 nM
IC50 (second compound 0.316 µM): 15.5 nM
IC50 (second compound 1 µM): 15.4 nM
IC50 (second compound 3.16 µM): 15.1 nM
IC50 (second compound 10 µM): 17.1 nM
Structure (SMILES): CC(C)CC(NC(=O)C(Cc1ccccc1)NC(=O)c1cnccn1)B(O)O (stereo not given) + Cc1ccccc1N=Nc1ccc(NC(=O)c2ccnn2C)c(C)c1
viability, T/C (second compound 0.1 µM, first compound 0.000949 µM): 86%
viability, T/C (second compound 0.1 µM, first compound 0.003 µM): 93%
viability, T/C (second compound 0.1 µM, first compound 0.00949 µM): 85.9%
viability, T/C (second compound 0.1 µM, first compound 0.03 µM): 1.03%
viability, T/C (second compound 0.1 µM, first compound 0.0949 µM): 0.47%
viability, T/C (second compound 0.1 µM, first compound 0.3 µM): 0.58%
viability, T/C (second compound 0.316 µM, first compound 0.000949 µM): 86%
viability, T/C (second compound 0.316 µM, first compound 0.003 µM): 105%
viability, T/C (second compound 0.316 µM, first compound 0.00949 µM): 86.9%
viability, T/C (second compound 0.316 µM, first compound 0.03 µM): 0.65%
viability, T/C (second compound 0.316 µM, first compound 0.0949 µM): 0.35%
viability, T/C (second compound 0.316 µM, first compound 0.3 µM): 0.4%
viability, T/C (second compound 1 µM, first compound 0.000949 µM): 97.9%
viability, T/C (second compound 1 µM, first compound 0.003 µM): 96.8%
viability, T/C (second compound 1 µM, first compound 0.00949 µM): 85.3%
viability, T/C (second compound 1 µM, first compound 0.03 µM): 0.79%
viability, T/C (second compound 1 µM, first compound 0.0949 µM): 0.52%
viability, T/C (second compound 1 µM, first compound 0.3 µM): 0.56%
viability, T/C (second compound 3.16 µM, first compound 0.000949 µM): 86.4%
viability, T/C (second compound 3.16 µM, first compound 0.003 µM): 90.7%
viability, T/C (second compound 3.16 µM, first compound 0.00949 µM): 82.9%
viability, T/C (second compound 3.16 µM, first compound 0.03 µM): 1.35%
viability, T/C (second compound 3.16 µM, first compound 0.0949 µM): 0.62%
viability, T/C (second compound 3.16 µM, first compound 0.3 µM): 0.61%
viability, T/C (second compound 10 µM, first compound 0.000949 µM): 120%
viability, T/C (second compound 10 µM, first compound 0.003 µM): 116%
viability, T/C (second compound 10 µM, first compound 0.00949 µM): 98.9%
viability, T/C (second compound 10 µM, first compound 0.03 µM): 2.93%
viability, T/C (second compound 10 µM, first compound 0.0949 µM): 0.98%
viability, T/C (second compound 10 µM, first compound 0.3 µM): 0.8%
